Measured values published in patent US20250268902A1, “THERAPEUTIC METHODS” (CeleCor Therapeutics, Inc., priority 2021, published 2025).
Read-outs that look alike come from different tables or passages of the source.

Assays:
[1] = system: agglutination of fibrinogen-coated beads by activated platelets; experiment: VerifyNow ADP+PGE1, iso-TRAP and base channel assays; format: cell-based
Procedure: VerifyNow (VN) assays (Instrumentation Laboratories, Bedford, MA) are whole-blood, cartridge-based, and automated, and produce results within 15 minutes of blood draw. They are based on the agglutination of fibrinogen-coated beads by platelets activated by different agonists. Commercially available VN assays are designed to study the antiplatelet effects of aspirin (VN Aspirin cartridge; arachidonic acid activator) or P2Y12 antagonists (VN PRUTest cartridge and VN P2Y12 cartridge; ADP+PGE1 activator/inhibitor combination). The modified thrombin receptor activating peptide (iso-TRAP) is included in a separate reaction chamber (in addition to the ADP+PGE1 reaction chamber) in both the PRUTest and P2Y12 cartridges, and the P2Y12 cartridges further include a ‘BASE channel’ reaction chamber in which a PAR-1 activating peptide (iso-TRAP) at higher concentrations is combined with a PAR-4 activating peptide (PAR-4 AP) to achieve potent activation that can overcome the effects of P2Y12 antagonists.
VerifyNow ADP+PGE1, iso-TRAP, and base channel assays may be used to report Compound (1)-mediated inhibition in near real-time. VN assays can be used to help deconvolute antiplatelet effects of αIIbβ3 antagonists versus P2Y12 antagonists. […] The BASE channel assay was used to monitor the pharmacodynamic effects of Compound (1) independent of any P2Y12 inhibitors.

[2] = system: platelet aggregation; experiment: Light transmission aggregometry (LTA) with activators ADP, iso-TRAP, arachidonic acid; format: cell-based
Description: Light transmission aggregometry (LTA) is considered the gold standard assay to assess the potency of antiplatelet agents, such as Compound (I), because of its association with clinical outcomes.

[3] = system: platelets in whole blood (VN isoTRAP and ADP+PGE1 channels); experiment: In vitro VerifyNow IIb/IIIa and PRU cartridges in whole blood from healthy volunteers; format: cell-based, human; details: 30-900 nM, 10 minutes at room temperature
Procedure: Whole blood anticoagulated with either sodium citrate (0.32%) or PPACK ([…]) from healthy volunteers who were either taking or not taking daily aspirin was treated in vitro with Compound (I) (RUC-4) to achieve final whole blood concentrations between 30 and 900 nM. Blood was incubated for 10 minutes at room temperature and then tested with either the IIb/IIIa or PRU cartridge.

[4] = system: PAR1/PAR4-induced platelet aggregation (BASE Channel); experiment: VerifyNow P2Y12 assay BASE channel platelet inhibition in STEMI patients (CEL-02 trial); format: in vivo, human; details: for inhibition at 0.075 mg/kg / inhibition at 0.09 mg/kg / inhibition at 0.11 mg/kg: Homo sapiens, Platelet; for inhibition at 0.075 mg/kg: 0.075 mg/kg SC; for inhibition at 0.09 mg/kg: 0.090 mg/kg SC; for inhibition at 0.11 mg/kg: 0.11 mg/kg SC
Description: The open-label, dose escalating, phase 2, CEL-02 trial set out to assess the pharmacodynamics (PD), pharmacokinetics (PK), safety and tolerability of RUC-4 in STEMI patients treated with aspirin and ticagrelor in the ambulance undergoing primary percutaneous coronary intervention (pPCI). STEMI patients presenting for pPCI at the St. Antonius Hospital Nieuwegein, the Netherlands, received a single, weight-adjusted, subcutaneous injection of RUC-4 before coronary angiography. After assessment of every 8 evaluable patients, the dose was escalated to reach an optimal dose for platelet inhibition. All patients were concomitantly treated with aspirin, ticagrelor and unfractionated heparin (UFH)(5000 IU) in the ambulance. Additional UFH during PCI was only administered when ACT was <200 seconds (2500-5000 IU). Blood samples for (PD) and (PK) were taken before RUC-4 administration, and 15, 45, 60, 90, 120, 180, and 240 minutes thereafter. Platelet inhibition was measured by the VerifyNow P2Y12 assay BASE channel which uses a protease activated receptor-1 (PAR-1) peptide (iso-TRAP) and a PAR-4 activating peptide as agonists, overriding platelet inhibition by oral P2Y12 inhibitors.

[5] = system: platelet aggregation to adenosine diphosphate (ADP; 20 μM); experiment: Inhibition of platelet aggregation (IPA) to ADP (20 μM) after SC injection in healthy volunteers and stable CAD patients on aspirin; format: in vivo, human; details: for mean±SD IPA / IPA: 15 minutes after injection; for IPA: stable CAD patients on aspirin
Procedure: Sequentially, healthy volunteers (HV) and then patients with stable coronary disease (CAD) receiving aspirin received escalating doses of RUC-4 or placebo in a sentinel dose, randomized, blinded fashion. Inhibition of platelet aggregation (IPA) to adenosine diphosphate (ADP; 20 μM), RUC-4 blood levels, laboratory evaluations, and clinical assessments were made through 24 hours and at 7 days. Doses were increased until a dose that produced ≥80% IPA within 15 minutes, with return toward baseline within 4 hours was achieved. VerifyNow (VN) was also measured in a subset of patients with stable CAD.

NCC(=O)Nc1cncc(-c2nn3c(=O)cc(N4CCNCC4)nc3s2)c1 [RUC-4]
inhibition of VN ADP+PGE1 assay [1]: dramatically inhibits | inhibition of VN base channel assay [1]: dramatically inhibits | inhibition of VN iso-TRAP assay [1]: dramatically inhibits | inhibition of AA (arachidonic acid) induced LTA [2]: dramatically inhibits | inhibition of ADP induced LTA [2]: dramatically inhibits | inhibition of the VN isoTRAP channels ([3]; IIb/IIIa and PRU cartridges): dose-dependent inhibition | inhibition of the VN ADP+PGE1 channel ([3]; PRU cartridge): dose-dependent inhibition | inhibition at 0.075 mg/kg ([4]; 0.25 h, 15 minutes post-dose, n=8, with aspirin, ticagrelor, UFH, read-out: maximal platelet inhibition, mean [SD]): 83.7% | inhibition at 0.09 mg/kg ([4]; 0.25 h, 15 minutes post-dose, n=9, with aspirin, ticagrelor, UFH, read-out: maximal platelet inhibition, mean [SD]): 89.6% | inhibition at 0.11 mg/kg ([4]; 0.25 h, 15 minutes post-dose, n=10, with aspirin, ticagrelor, UFH, read-out: maximal platelet inhibition, mean [SD]): 92.5% | inhibition at 0.075 mg/kg ([4]; 2 h, 120 minutes post-dose, n=8, read-out: platelet inhibition, mean (SD)): 17.9% | inhibition at 0.09 mg/kg ([4]; 2 h, 120 minutes post-dose, n=9, read-out: platelet inhibition, mean (SD)): 22.6% | inhibition at 0.11 mg/kg ([4]; 2 h, 120 minutes post-dose, n=10, read-out: platelet inhibition, mean (SD)): 31.6% | time to maximal platelet function inhibition ([4]; single-dose subcutaneous): ≤ 15 min | time to return of platelet function ([4]; single-dose subcutaneous): ≤ 120 min | mean±SD IPA ([5]; healthy volunteers, 0.05 mg/kg SC, n=6): 71.8±15.0% | mean±SD IPA ([5]; healthy volunteers, 0.075 mg/kg SC, n=6): 84.7±16.7% | time over which IPA diminished ([5]; healthy volunteers, in all cases, after SC injection): 90 to 120 min | IPA ([5]; 0.04 mg/kg SC, n=2): 53.6±17.0% | IPA ([5]; 0.05 mg/kg SC, n=6): 76.9±10.6% | IPA ([5]; 0.075 mg/kg SC, n=18): 88.9±12.7%

CC(=O)Oc1ccccc1C(=O)O [aspirin]
inhibition of VN ADP+PGE1 assay [1]: does not inhibit | inhibition of VN base channel assay [1]: does not inhibit | inhibition of VN iso-TRAP assay [1]: does not inhibit | inhibition of ADP induced LTA [2]: does not significantly inhibit | inhibition of iso-TRAP induced LTA [2]: does not significantly inhibit | effect of aspirin on IPA ([5]; subjects given RUC-4 SC): did not affect | effect of aspirin on RUC-4 blood levels ([5]; subjects given RUC-4 SC): did not affect

CCCSc1nc(N[C@@H]2C[C@H]2c2ccc(F)c(F)c2)c2nnn([C@@H]3C[C@H](OCCO)[C@@H](O)[C@H]3O)c2n1 [ticagrelor]
inhibition of VN ADP+PGE1 assay [1]: dramatically inhibits | inhibition of VN base channel assay [1]: does not inhibit | inhibition of VN iso-TRAP assay [1]: slightly inhibits | inhibition of iso-TRAP induced LTA [2]: slightly inhibits
